Assay [1] has as its system activation of MAPK within vascular endothelial cells induced by VEGF stimulation. The experiment in a line: Inhibitory activity against activation of MAPK within vascular endothelial cells induced by VEGF stimulation. The class given is cell-based. The conditions noted are these: human funicular venous vascular endothelial cells, VEGF 50 ng/ml, phosphorylated MAPK by immunoblotting. The procedure: Measurement of Inhibitory Activity Against Activation of MAPK Within Vascular Endothelial Cells Induced by VEGF Stimulation
Human funicular venous vascular endothelial cells (purchased from Chronetics) were cultured in an EGM-2 medium (purchased from Chronetics) within an incubator containing 5% carbon dioxide until 50 to 70% confluent, and the culture was inoculated into wells, containing the same medium, in a 96-well flat-bottom plate in an amount of 1.5×10^5 per well. After cultivation at 37° C. overnight, the medium was replaced by an EBM-2 medium containing 0.5% fetal calf serum (purchased from Chronetics), followed by cultivation for 24 hr. A solution of the test compound in dimethyl sulfoxide was added to each well, and the cultivation was continued at 37° C. for additional one hr. A human recombinant vascular endothelial growth factor (hereinafter abbreviated to “VEGF”) was added to a final concentration of 50 ng/ml, and the stimulation of cells was carried out at 37° C. for 8 min. The medium was removed, the cells were washed with phosphate buffered saline (pH 7.4), and 10 μl of a solubilization buffer (Tris buffered saline (pH 7.4) containing 1% Triton X100, 2 mM sodium orthovanadylate, and 1 mM disodium ethylenediaminetetraacetate) was then added thereto. The mixture was shaken at 4° C. for one hr to solubilize the cells. An equal amount of Tris buffered saline containing 1% sodium laurylsulfate was added to and thoroughly mixed with the solution. This solution (2 μl) was adsorbed on a PVDF filter by dot blotting, and this filter was subjected to immunoblotting with anti-tyrosine phosphorylated MAPK antibody (purchased from Daiichi Pure Chemicals).
The level of phosphorylated MAPK was quantitatively determined with a densitometer, and the percentage phosphorylated MAPK in the presence of the test compound was determined by presuming the level of phosphorylated MAPK with the addition of VEGF in the absence of the test compound to be 100% and the level of phosphorylated MAPK in the absence of the test compound and VEGF to be 0%. The test compound concentration (IC50) necessary for inhibiting 50% of the activation of MAPK was calculated based on the percentage of phosphorylated MAPK.
For orientation: Immunoblotting shows a protein as a band on a membrane.

For another assay, the system named is Human glioma cells GL07. The experiment in a line: Antitumor effect on human glioma cells (GL07) transplanted into nude mice. The conditions noted are these: GL07, oral, 20 mg/kg once a day for 9 days; for inhibition in vivo at 20 mg/kg: Mus musculus, Glioma cell, 216 h, read-out: TGIR, % (tumor growth inhibition rate). The class given is in vivo. An outline of the steps:
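GL07 xenografts in nude mice, grouped (n=4) at ~100 mm^3 tumor volume. Test compound 20 mg/kg p.o. or i.p. once daily for 9 days; vehicle controls. TGIR = (1−Tx/Cx)×100 from tumor volumes normalized to day-of-start volume = 1.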

The next assay deals with T1, human KDR (Homo sapiens, UniProt P35968).
T1 construct: expressed in transfected cells; host or cells: NIH 3T3 cells (Sawano A et al., Cell Growth & Differentiation 7, 213-221 (1996))
T1 sequence (P35968 20-1356): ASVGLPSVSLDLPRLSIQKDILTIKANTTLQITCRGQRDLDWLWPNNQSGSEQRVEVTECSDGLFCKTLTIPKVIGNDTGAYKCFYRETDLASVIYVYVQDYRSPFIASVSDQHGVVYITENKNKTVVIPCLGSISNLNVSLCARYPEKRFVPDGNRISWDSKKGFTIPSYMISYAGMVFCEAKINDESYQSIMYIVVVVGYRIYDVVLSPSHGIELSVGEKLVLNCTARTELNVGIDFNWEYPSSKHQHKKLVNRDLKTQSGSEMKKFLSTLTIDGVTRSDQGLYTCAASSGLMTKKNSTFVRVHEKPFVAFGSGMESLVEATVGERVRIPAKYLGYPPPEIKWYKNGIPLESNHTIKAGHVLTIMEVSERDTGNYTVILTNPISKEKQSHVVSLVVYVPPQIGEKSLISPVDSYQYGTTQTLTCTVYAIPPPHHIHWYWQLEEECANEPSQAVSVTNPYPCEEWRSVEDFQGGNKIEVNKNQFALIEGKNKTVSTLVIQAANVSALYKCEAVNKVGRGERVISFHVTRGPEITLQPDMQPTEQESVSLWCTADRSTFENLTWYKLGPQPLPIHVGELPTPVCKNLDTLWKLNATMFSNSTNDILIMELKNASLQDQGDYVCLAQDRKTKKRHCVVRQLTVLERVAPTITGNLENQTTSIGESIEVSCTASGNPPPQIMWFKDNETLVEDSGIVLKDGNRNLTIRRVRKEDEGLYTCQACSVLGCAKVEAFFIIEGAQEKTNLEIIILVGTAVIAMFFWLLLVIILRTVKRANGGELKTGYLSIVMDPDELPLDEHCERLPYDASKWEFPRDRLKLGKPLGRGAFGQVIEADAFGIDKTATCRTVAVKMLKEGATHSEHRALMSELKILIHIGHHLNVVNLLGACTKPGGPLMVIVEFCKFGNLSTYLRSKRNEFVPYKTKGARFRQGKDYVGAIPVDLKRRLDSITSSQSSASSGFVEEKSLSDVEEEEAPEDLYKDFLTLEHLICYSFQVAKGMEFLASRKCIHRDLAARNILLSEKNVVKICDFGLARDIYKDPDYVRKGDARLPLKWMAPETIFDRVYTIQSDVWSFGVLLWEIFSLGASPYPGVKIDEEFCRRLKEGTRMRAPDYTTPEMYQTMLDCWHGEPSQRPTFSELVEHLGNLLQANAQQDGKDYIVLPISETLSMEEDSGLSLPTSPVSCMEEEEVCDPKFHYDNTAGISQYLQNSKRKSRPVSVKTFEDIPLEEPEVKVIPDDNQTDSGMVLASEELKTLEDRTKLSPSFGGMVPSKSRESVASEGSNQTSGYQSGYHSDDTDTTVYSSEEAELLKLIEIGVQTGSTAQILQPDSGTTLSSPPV
The experiment in a line: Inhibitory activity against KDR phosphorylation by ELISA. The class given is cell-based. Particulars: NIH 3T3 cells transfected with human KDR, VEGF 100 ng/ml. On the technique in general: ELISA stands for enzyme-linked immunosorbent assay.

The IC50 is the concentration at which inhibition is half-maximal. Read a high IC50 as lower potency. `COc1cc2nccc(Oc3ccc(NC(=O)Nc4ccccc4C)c(Cl)c3)c2cc1OC` [Example 19, N-{2-Chloro-4-[(6,7-dimethoxy-4-quinolyl)oxy]phenyl}-N′-(2-methylphenyl)urea] yielded an IC50 in assay [1] (Endothelial cell) of 0.6 nM. In assay [1], `CCNC(=O)Nc1ccc(Oc2ccnc3cc(OC)c(OC)cc23)cc1F` [Example 8, N-{4-[(6,7-Dimethoxy-4-guinolyl)oxy]-2-fluorophenyl}-N′-ethylurea] had an IC50 of 11 nM. Take `COCCOc1cc2nccc(Oc3ccc(NC(=O)Nc4ccc(F)cc4F)c(Cl)c3)c2cc1OC` [Example 54, N-(2-Chloro-4-{[6-methoxy-7-(2-methoxyethoxy)-4-quinolyl]oxy}phenyl)-N′-(2,4-difluorophenyl)urea]: in the assay on Human glioma cells GL07, the inhibition in vivo at 20 mg/kg was 59%. In addition, inhibition in assay [1] (Endothelial cell) was half-maximal at 0.5 nM (IC50). For `CCC(C)NC(=O)Nc1ccc(Oc2ccnc3cc(OC)c(OC)cc23)cc1F` (stereo not shown) [Example 10, N-(sec-Butyl)-N′-{4-[(6,7-dimethoxy-4-quinolyl)oxy]-2-fluorophenyl}urea], in assay [1] (Endothelial cell), the IC50 was found to be 7.8 nM. In assay [1] (Endothelial cell), `COc1cc2nccc(Oc3ccc(NC(=O)NCc4ccc(F)cc4F)c(F)c3)c2cc1OC` [Example 1, N-(2,4-Difluorobenzyl)-N′-{4-[(6,7-dimethoxy-4-quinolyl)oxy]-2-fluorophenyl}urea] had an IC50 of 1.8 nM. As for `C#CCNC(=O)Nc1ccc(Oc2ccnc3cc(OC)c(OC)cc23)cc1F` [Example 7, N-{4-[(6,7-Dimethoxy-4-quinolyl)oxy]-2-fluorophenyl}-N′-(2-propynyl)urea], 5.2 nM corresponded to half-maximal inhibition in assay [1] (Endothelial cell) (IC50). Against the preceding molecule, the IC50 is about 2.9-fold higher. Molecule `COCCOc1cc2nccc(Oc3ccc(NC(=O)Nc4ccccc4OC)c(C)c3C)c2cc1OC` [Example 57, N-(4-{[6-Methoxy-7-(2-methoxyethoxy)-4-quinolyl]oxy}-2,3-dimethylphenyl)-N′-(2-methoxyphenyl)urea] had an IC50 in assay [1] (Endothelial cell) of 6.5 nM. `COc1cc2nccc(Oc3ccc(NC(=O)NCC(C)C)c(F)c3)c2cc1OC` [Example 11, N-{4-[(6,7-Dimethoxy-4-quinolyl)oxy]-2-fluorophenyl}-N′-isobutylurea]: the half-inhibitory concentration (IC50) in assay [1] (Endothelial cell) came to 15 nM.

Take `COc1cc2c(Oc3ccc(NC(=O)Nc4ccc(F)cc4F)c(Cl)c3)ncnc2cc1OCCCN1CCN(C)CC1` [Example 164, N-[2-chloro-4-(6-methoxy-7-{[3-(4-methylpiperazino)propoxy]-4-quinazolinyl}oxy)phenyl]-N′-(2,4-difluorophenyl)urea]: the “TGIR, % (tumor growth inhibition rate)” value with Human glioma cells GL07 is on record as 55%. The molecule also registered a half-inhibitory concentration (IC50) at human KDR of 0.9 nM. Turning to `CCCNC(=O)Nc1ccc(Oc2ncnc3cc(OCCCCCn4ccnn4)c(OC)cc23)cc1Cl` [Example 125, N-{2-chloro-4-[(6-methoxy-7-{[5-(1H-1,2,3-triazol-1-yl)pentyl]oxy}-4-quinazolinyl)oxy]phenyl}-N′-propylurea], the inhibition in vivo at 20 mg/kg in the assay with Human glioma cells GL07 is 30%. Moreover, the half-maximal inhibitory concentration (IC50) on human KDR is 2.6 nM. The molecule `COc1cc2nccc(Oc3ccc(NC(=O)Nc4cccc5ccccc45)c(Cl)c3)c2cc1OC` [Example 23, N-{2-Chloro-4-[(6,7-dimethoxy-4-guinolyl)oxy]phenyl}-N′-(1-naphthyl)urea] registered an IC50 in assay [1] of 5.4 nM. Consider `CCCNC(=O)Nc1ccc(Oc2ccnc3cc(OCCCCn4ccnn4)c(OC)cc23)cc1Cl` [Example 158, N-[2-Chloro-4-({6-methoxy-7-[4-(1H-1,2,3-triazol-1-yl)butoxy]-4-guinolyl}oxy)phenyl]-N′-propylurea], for which, in the assay on Human glioma cells GL07, the inhibition in vivo at 20 mg/kg was determined as 39%. On human KDR, this molecule showed an IC50 of 1.6 nM. As for `CCCNC(=O)Nc1ccc(Oc2ncnc3cc(OCCCCCN4CCOCC4)c(OC)cc23)cc1Cl` [Example 124, N-[2-Chloro-4-({6-methoxy-7-[(5-morpholinopentyl)oxy]-4-quinazolinyl}oxy)phenyl]-N′-propylurea], the inhibition in vivo at 20 mg/kg with Human glioma cells GL07 was 27%. Further, the concentration for half-maximal inhibition (IC50) against human KDR is 1.9 nM. Take `COC(=O)COc1cc2ncnc(Oc3ccc(NC(=O)N(C)C)c(Cl)c3)c2cc1OC` [Example 181, Methyl 2-{[4-(3-chloro-4-{[(dimethylamino)carbonyl]amino}phenoxy)-6-methoxy-7-quinazolinyl]oxy}acetate]: the inhibition in vivo at 20 mg/kg with Human glioma cells GL07 came to 21%. For the same molecule, the half-maximal inhibitory concentration (IC50) on human KDR was more than 1000 nM. The corresponding values for `CCCNC(=O)Nc1ccc(Oc2ccnc3cc(OCCCN(CCO)CCO)c(OC)cc23)cc1Cl` [Example 156, N-{2-Chloro-4-[(7-{3-[di(2-hydroxyethyl)-amino]propoxy}-6-methoxy-4-guinolyl)oxy]phenyl}-N′-propylurea] are 24% and 0.8 nM. As to `CCCNC(=O)Nc1cc(C)c(Oc2ccnc3cc(OCCCN4CCN(C)CC4)c(OC)cc23)cc1C` [Example 176, N-[4-({6-Methoxy-7-[3-(4-methylpiperazino)-propoxy]-4-guinolyl}oxy)-2,5-dimethylphenyl]-N′-propylurea], the inhibition in vivo at 20 mg/kg in the assay with Human glioma cells GL07 was 22%. Also, the IC50 on human KDR turned out to be 3.7 nM.

The molecule `COCCOc1cc2nccc(Oc3ccc(NC(=O)Nc4ccc(F)cc4F)c(C)c3C)c2cc1OC` [Example 56, N-(2,4-Difluorophenyl)-N′-(4-{[6-methoxy-7-(2-methoxyethoxy)-4-quinolyl]oxy}-2,3-dimethylphenyl)-urea] displayed a concentration for half-maximal inhibition (IC50) in assay [1] (Endothelial cell) of 5.1 nM. In the case of `COc1cc2c(Oc3ccc(NC(=O)N(C)C)c(Cl)c3)ncnc2cc1OCCCN1CCN(C)CC1` [Example 182, N′-[2-Chloro-4-({6-methoxy-7-[3-(4-methylpiperazino)propoxy]-4-quinazolinyl}oxy)phenyl]-N,N-dimethylurea], the inhibition in vivo at 20 mg/kg in the assay with Human glioma cells GL07 amounted to 31%. Further, the half-inhibitory concentration (IC50) against human KDR is more than 1000 nM. As to `CCCNC(=O)Nc1ccc(Oc2ccnc3cc(OCCCCn4ccnc4)c(OC)cc23)cc1Cl` [Example 160, N-[2-chloro-4-(7-{[4-(1H-1-imidazolyl)-butoxy]-6-methoxy-4-quinolyl}oxy)phenyl]-N′-propylurea], the “TGIR, % (tumor growth inhibition rate)” value in the assay with Human glioma cells GL07 is given as 43%. At human KDR, the half-maximal inhibitory concentration (IC50) is 0.9 nM. As to `CCCNC(=O)Nc1ccc(Oc2ccnc3cc(OCCO)c(OC)cc23)cc1Cl` [Example 149, N-(2-chloro-4-{[7-(2-hydroxyethoxy)-6-methoxy-4-quinolyl]oxy}phenyl)-N′-propylurea], the inhibition in vivo at 20 mg/kg with Human glioma cells GL07 was 47%. This molecule gave an IC50 at human KDR of 1.6 nM. With `CCCNC(=O)N(C(C)=O)c1ccc(Oc2ncnc3cc(OC)c(OC)cc23)cc1Cl` [Example 110, N-Acetyl-N-{2-chloro-4-[(6,7-dimethoxy-4-quinazolinyl)oxy]phenyl}-N′-propylurea], the inhibition in vivo at 20 mg/kg with Human glioma cells GL07 is 26%. On human KDR, this molecule returned a 50% inhibitory concentration (IC50) of more than 1000 nM. For the molecule `CCCN(CCC)C(=O)Nc1ccc(Oc2ncnc3cc(OC)c(OC)cc23)cc1Cl` [Example 113, N′-{2-Chloro-4-[(6,7-dimethoxy-4-quinazolinyl)oxy]phenyl}-N,N-dipropylurea], the inhibition in vivo at 20 mg/kg in the assay on Human glioma cells GL07 was determined as 61%. At human KDR, this molecule registered an IC50 of more than 1000 nM. As to `COc1cc2c(Oc3ccc(NC(=O)Nc4ccc(F)cc4F)c(Cl)c3)ncnc2cc1OCc1ccncc1` [Example 161, N-(2-Chloro-4-{[6-methoxy-7-(4-pyridylmethoxy)-4-quinazolinyl]oxy}phenyl)-N′-(2,4-difluorophenyl)urea], the inhibition in vivo at 20 mg/kg in the assay with Human glioma cells GL07 was determined as 39%. Besides, half-maximal inhibition against human KDR (IC50) required 3.9 nM.

Turning to `CCCNC(=O)Nc1ccc(Oc2ccnc3cc(OCc4ccccn4)c(OC)cc23)cc1Cl` [Example 141, N-(2-Chloro-4-{[6-methoxy-7-(2-pyridylmethoxy)-4-quinolyl]oxy}phenyl)-N′-propylurea], the inhibition in vivo at 20 mg/kg in the assay with Human glioma cells GL07 came out at 28%. Moreover, at human KDR, the IC50 amounted to 14 nM. Regarding `CCCNC(=O)Nc1ccc(Oc2ccnc3cc(OCCCn4ccnn4)c(OC)cc23)cc1Cl` [Example 153, N-[2-chloro-4-(6-methoxy-7-{[3-(1H-1,2,3-triazol-1-yl)propoxy]-4-quinolyl}oxy)phenyl]-N′-propylurea], the inhibition in vivo at 20 mg/kg with Human glioma cells GL07 is 53%. Also, it took 1.5 nM to reach half-maximal inhibition against human KDR (IC50). Taken in the same sequence, the figures for `CCCNC(=O)Nc1ccc(Oc2ncnc3cc(OC)c(OCCCN4CCOCC4)cc23)cc1Cl` [Example 139, N-(2-Chloro-4-{[7-methoxy-6-(3-morpholinopropoxy)-4-quinazolinyl]oxy}phenyl)-N′-propylurea] were 27% and 15 nM.

Source of the values: patent US7169789B2 (Kirin Beer Kabushiki Kaisha, priority 1999, dated 2007).
